pIC50: −log10 of the molar value. Like-named read-outs stand apart in the source and are kept apart here.
Tests used:
Assay type in all cases: cell-based
[1] = system: BRCA2 mutant ovarian tumor cell line PEO1; test: Cell sensitivity analysis on PEO1 cell line, single and combination treatment, Isobole plot
Procedure: Cell sensitivity analysis was performed to evaluate the synergistic effect of LP-184 and Olaparib on PEO1 cell line, which is an established BRCA2 mutant ovarian tumor cell line. Cells were seeded onto 96-well plate and were continuously exposed to drug treatment for 8.5 days. IC50 data were obtained from Olaparib, LP-184 single treatment and combination treatment.
Cell sensitivity analysis was performed to evaluate the synergistic effect of LP-184 and Talazoparib on PEO1 cell line. Experiments were done as described above. […] Furthermore, the synergistic effect of Talazoparib and LP-184 co-treatment was analyzed by using an Isobole plot (FIG. 4D).

[2] = system: OVCAR3 (Ovarian); test: Bliss synergy score (MacSynergy II), LP-100 and PARP inhibitor, OVCAR3; conditions: combination with LP-100, score >10 indicates synergy
Procedure: (§1) This program allows the three-dimensional examination of drug interactions of all data points generated from the checkerboard combination of two inhibitors with Bliss-Independence model (not shown). Confidence bounds are determined from replicate data. […] The volumes of synergy or antagonism can be determined and graphically depicted in three dimensions and represent the relative quantity of synergism or antagonism per change in the two drug concentrations. Synergy and antagonism volumes are based on the Bliss independence model, which assumes that both compounds act independently on different targets. A set of predicted fractional responses faAB under the Bliss independence model is calculated as […] faB with faA and faB representing the fraction of possible responses, e.g. percent (%) inhibition, of compounds A and B at amounts dA and dB, respectively, and describes the percent inhibition of a combination of compounds A and B at amount (dA+dB).

[3] = system: 22RV1 (Prostate); test: Bliss synergy score (MacSynergy II), LP-100 and PARP inhibitor, 22RV1; conditions: combination with LP-100, score >10 indicates synergy
Procedure: as §1

[4] = Homo sapiens, PEO1, 204 h, PEO1, 8.5 days, Olaparib and LP-184 together, FIG. 3C, read-out: IC50 of Olaparib and LP-184 co-treatment (concentration of each drug giving 50% cell growth inhibition together)
[5] = Homo sapiens, PEO1, PEO1, Example 4, FIGS. 4A, 4B, read-out: IC50 single treatment
[6] = Homo sapiens, PEO1, PEO1, Talazoparib and LP-184 together, FIG. 4C, read-out: IC50 of Talazoparib and LP-184 co-treatment (concentration of each drug giving 50% cell growth inhibition together)
[7] = PEO1, Olaparib and LP-184 co-treatment, Example 3
[8] = PEO1, Talazoparib and LP-184 co-treatment, Example 4

SMILES	pIC50 [1, 4]	pIC50 [1, 5]	pIC50 [1, 6]	fold less in co-treatment compared to single drug treatment [1, 7] [fold]	fold less in co-treatment compared to single drug treatment [1, 8] [fold]	Bliss Synergy Score between LP-100 and PARP inhibitor [2]	further results
CC1=C(CN(O)C(N)=O)C2=C(C)C3(CC3)[C@@](C)(O)C(=O)C2=C1 [LP-184, (−)-hydroxyureamethyl acylfulvene]	7.86	7.06	8.14	7.77	12.14		pIC50 ([1]; Homo sapiens, PEO1, 204 h, PEO1, Example 4, FIGS. 4A, 4B, read-out: IC50 single treatment): 7.06; pIC50 ([1]; Homo sapiens, PEO1, 204 h, PEO1, continuous exposure 8.5 days, Example 3, FIGS. 3A, 3B, read-out: IC50 single treatment): 6.97
NC(=O)c1cccc2cn(-c3ccc([C@@H]4CCCNC4)cc3)nc12 [Niraparib]						10.34	
CNCc1ccc(-c2[nH]c3cc(F)cc4c3c2CCNC4=O)cc1 [Rucaparib, 8-Fluoro-2-{4-[(methylamino)methyl]phenyl}-1,3,4,5-tetrahydro-6H-azepino[-5,4,3-cd]indol-6-one]						14.11	Bliss Synergy Score between LP-100 and PARP inhibitor [3]: 18.57

Continued, in another order:

pIC50 [1, 4]	pIC50 [1, 5]	pIC50 [1, 6]	SMILES	fold less in co-treatment compared to single drug treatment [1, 7] [fold]	fold less in co-treatment compared to single drug treatment [1, 8] [fold]	Bliss Synergy Score between LP-100 and PARP inhibitor [2]	further results
	7.88		Cn1ncnc1[C@H]1c2n[nH]c(=O)c3cc(F)cc(c23)N[C@@H]1c1ccc(F)cc1 [Talazoparib, (8S,9R)-5-fluoro-8-(4-fluorophenyl)-9-(1-methyl-1H-1,2,4-triazol-5-yl)-8,-9-dihydro-2H-pyrido[4,3,2de]phthalazin-3 (7H)-one]		3.64		
6.56		8.44	O=C(c1cc(Cc2n[nH]c(=O)c3ccccc23)ccc1F)N1CCN(C(=O)C2CC2)CC1 [Olaparib, 4-[(3-[(4-cyclopropylcarbonyl)piperazin-4-yl]carbonyl)-4-fluorophenyl]met-hyl(2H)-phthalazin-1-one]	4.48		12.19	pIC50 ([1]; PEO1, continuous exposure 8.5 days, Example 3, FIGS. 3A, 3B, read-out: IC50 single treatment): 5.90

— patent US20240299322A1, “TREATING CANCERS WITH COMBINATIONS OF PARP INHIBITOR AND ACYLFULVENES” (LANTERN PHARMA INC., priority 2022, published 2024)
